Patent publication US20240270751A1, “Pyrazolopyridinone Compounds” (BeiGene Ltd., priority 2021, published 2024)

Columns and labels:
[1] = target: DGKζ (Homo sapiens (Human), UniProt Q13574); assay: Biochemical DGK IC50 assay, DGKζ ADP-Glo assay; settings: 0.5 nM enzyme, 140 μM ATP, 80 μM DAG; read-out: DGKζ ADP-Glo assay IC50
Method: (§1) Enzymatic reactions of DGKζ, DGKα and DGKδ were performed using ADP-Glo assay with lipid micelle substrate. […] Full length DGKα (D21-10BG, SignalChem) and full length DGKδ (D23-10G, SignalChem) were purchased. Lipid micelle was prepared by dissolving DAG (Sigma, 317505-10MG) and PS (Sigma, P7769-100MG) with chloroform which was furtherly removed by rotary evaporation. The resulted product was resuspended in buffer containing 25 mM HEPES pH 7.0, 0.5 mM EDTA and 160 mM Octyl β-D glucopyranoside by vigorous mixing and ultrasonic (IID, Scientz).
(§2) The ranges of compounds final concentration were 1.55˜10000 nM or 23.3˜150000 nM. 3 μL 2× enzyme solution was added to wells.
Human His-TEV-DGK-zeta-pFastBac1 and human baculovirus samples was generated using the Bac-to-Bac baculovirus expression system (Invitrogen) according to the manufacturer's protocol. The DNA used for expression of DGK-zeta, have SEQ ID Nos: 1. Baculovirus amplification was achieved using infected SF9 cells at 1:2000 virus/cells ratios, and grown for 96 hours at 27° C. post-transfected.
The expression scaled up for each protein was carried out in the […] from CORNING. 4 L of 3×10^6 cells/mL Sf9 cells (Expression System, Invitrogen) grown in SF900™ II SFM insect medium (Expression System) was infected with virus stock at 1:200 virus/cells ratio, and grown for 48 hours at 27° C. post-transfection. The infected cell culture was harvested by centrifugation at 6000 rpm for 15 min 4° C. in a SORVALL LYNX6000 centrifuge. The cell pellets were stored at −80° C.
Full length human DGKζ produced as described above, was purified from Sf9 baculovirus-infected insect cell paste. The cells were lysed using sonication method, and the lysates were clarified by centrifugation.

[2] = target: DGKα (Homo sapiens (Human), UniProt P23743); assay: Biochemical DGK IC50 assay, DGKα ADP-Glo assay; settings: 7.5 nM enzyme, 140 μM ATP, 80 μM DAG
Sequence of DGKα (P23743 whole entry): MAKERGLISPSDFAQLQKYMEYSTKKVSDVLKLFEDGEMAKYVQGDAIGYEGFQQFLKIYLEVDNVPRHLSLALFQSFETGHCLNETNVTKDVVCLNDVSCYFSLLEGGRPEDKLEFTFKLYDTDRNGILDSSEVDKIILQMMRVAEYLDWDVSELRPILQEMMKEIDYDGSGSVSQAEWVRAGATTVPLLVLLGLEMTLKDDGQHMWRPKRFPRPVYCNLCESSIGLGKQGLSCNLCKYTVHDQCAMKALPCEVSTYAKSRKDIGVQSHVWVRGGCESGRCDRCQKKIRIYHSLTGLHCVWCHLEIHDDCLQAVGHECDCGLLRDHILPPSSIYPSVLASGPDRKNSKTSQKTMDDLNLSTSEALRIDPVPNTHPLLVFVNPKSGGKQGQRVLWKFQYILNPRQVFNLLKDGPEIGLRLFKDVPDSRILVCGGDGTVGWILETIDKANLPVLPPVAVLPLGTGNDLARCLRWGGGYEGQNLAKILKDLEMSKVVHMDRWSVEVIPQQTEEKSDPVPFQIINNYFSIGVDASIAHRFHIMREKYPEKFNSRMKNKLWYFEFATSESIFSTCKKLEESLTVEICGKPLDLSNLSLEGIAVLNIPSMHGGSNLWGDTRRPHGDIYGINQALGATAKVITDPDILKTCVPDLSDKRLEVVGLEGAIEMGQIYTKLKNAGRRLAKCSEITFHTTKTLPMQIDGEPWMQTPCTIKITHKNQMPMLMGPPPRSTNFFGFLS
Method: as §1, §2

Sequence of DGKζ (Q13574 other isoform, or with tags, fused parts or gaps): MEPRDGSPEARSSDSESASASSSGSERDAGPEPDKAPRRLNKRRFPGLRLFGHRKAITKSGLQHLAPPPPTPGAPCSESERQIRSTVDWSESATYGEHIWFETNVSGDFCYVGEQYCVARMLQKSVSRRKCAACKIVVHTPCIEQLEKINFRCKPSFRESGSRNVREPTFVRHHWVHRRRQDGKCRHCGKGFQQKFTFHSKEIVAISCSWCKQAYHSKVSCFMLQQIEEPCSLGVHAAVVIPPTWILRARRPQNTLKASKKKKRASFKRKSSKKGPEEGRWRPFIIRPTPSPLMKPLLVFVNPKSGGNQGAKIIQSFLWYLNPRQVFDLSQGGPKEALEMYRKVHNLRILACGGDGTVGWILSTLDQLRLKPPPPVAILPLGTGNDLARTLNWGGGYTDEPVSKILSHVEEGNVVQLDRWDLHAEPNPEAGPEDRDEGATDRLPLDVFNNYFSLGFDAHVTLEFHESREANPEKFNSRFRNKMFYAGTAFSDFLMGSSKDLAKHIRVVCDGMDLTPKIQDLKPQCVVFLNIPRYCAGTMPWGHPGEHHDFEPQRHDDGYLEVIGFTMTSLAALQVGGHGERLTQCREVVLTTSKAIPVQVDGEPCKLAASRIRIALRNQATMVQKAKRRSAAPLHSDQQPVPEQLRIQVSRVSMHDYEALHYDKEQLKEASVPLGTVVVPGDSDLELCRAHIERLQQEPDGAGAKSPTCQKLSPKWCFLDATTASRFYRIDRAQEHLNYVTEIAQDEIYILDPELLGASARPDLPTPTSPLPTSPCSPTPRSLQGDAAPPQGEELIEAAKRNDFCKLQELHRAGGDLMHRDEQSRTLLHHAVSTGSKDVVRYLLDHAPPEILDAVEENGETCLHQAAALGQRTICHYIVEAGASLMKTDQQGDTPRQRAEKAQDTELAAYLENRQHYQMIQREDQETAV

SMILES | IC50 [1] [µM] | IC50 [2] [µM]
C[C@@H](c1ccc2nccnc2c1)N1CCN(c2cc(=O)n(C)c3cn(CC#N)nc23)CC1C(N)=O (single isomer, unassigned) [Compound A198a] | > 10 | > 10
C[C@H](c1ccc2nccnc2c1)N1CCN(c2cc(=O)n(C)c3cn(CC#N)nc23)CC1C(N)=O (single isomer, unassigned) [Compound A198b] | > 10 | > 10
CC[C@H]1CN(C(C)c2ccc(C3CC3)cc2OC)[C@H](CC)CN1c1cc(=O)n(C)c2cn(CC#N)nc12 (single isomer, unassigned) [Compound A199a] | 2.46 | > 10
CC[C@H]1CN(C(C)c2ccc(C3CC3)cc2OC)[C@H](CC)CN1c1cc(=O)n(C)c2cn(CC#N)nc12 (single isomer, unassigned) [Compound A199b] | 0.803 | > 10
CC[C@@H]1CN(c2c(C#N)c(=O)[nH]c3cn(CC#N)nc23)[C@@H](C)CN1C(C)c1ccc2nccnc2c1 (single isomer, unassigned) [Compound A200a] | 0.102 | 7.08
CC[C@@H]1CN(c2c(C#N)c(=O)[nH]c3cn(CC#N)nc23)[C@@H](C)CN1C(C)c1ccc2nccnc2c1 (single isomer, unassigned) [Compound A200b] | 5.38 | > 10
CC[C@H]1CN(C(C)c2c(F)cc(F)cc2OC)[C@H](CC)CN1c1cc(=O)n(C)c2cn(CC#N)nc12 (single isomer, unassigned) [Compound A201a] | 0.043 | > 10
CC[C@H]1CN(C(C)c2c(F)cc(F)cc2OC)[C@H](CC)CN1c1cc(=O)n(C)c2cn(CC#N)nc12 (single isomer, unassigned) [Compound A201b] | > 10 | > 10
CC[C@H]1CN(C(C)c2nc3cc(C(F)(F)F)ccc3n2CC)[C@H](CC)CN1c1cc(=O)n(C)c2cn(CC#N)nc12 (single isomer, unassigned) [Compound A203a] | 2.21 | > 10
CCc1c(C(C)N2C[C@H](CC)N(c3cc(=O)n(C)c4cn(CC#N)nc34)C[C@H]2CC)cnn1C (single isomer, unassigned) [Compound A213a] | 1.36 | > 10
CCc1c(C(C)N2C[C@H](CC)N(c3cc(=O)n(C)c4cn(CC#N)nc34)C[C@H]2CC)cnn1C (single isomer, unassigned) [Compound A213b] | > 10 | > 10
CC[C@H]1CN([C@H](C)c2nc3ncccc3n2CC)[C@H](CC)CN1c1cc(=O)n(C)c2cn(CC#N)nc12 (single isomer, unassigned) [Compound A215a] | > 10 | > 10
CC[C@H]1CN([C@@H](C)c2nc3ncccc3n2CC)[C@H](CC)CN1c1cc(=O)n(C)c2cn(CC#N)nc12 (single isomer, unassigned) [Compound A215b] | 1.14 | > 10
CC(c1ccc2nccnc2c1)N1C[C@H](C)N(c2nc(=O)n(C)c3cn(CC#N)nc23)C[C@H]1C (single isomer, unassigned) [Compound A220, 2-(7-((2S,5R)-2,5-dimethyl-4-((S)-1-(quinoxalin-6-yl)ethyl)piperazin-1-yl)-4-methyl-5-oxo-4,5-dihydro-2H-pyrazolo[4,3-d]pyrimidin-2-yl)acetonitrile, or 2-(7-((2S,5R)-2,5-dimethyl-4-((R)-1-(quinoxalin-6-yl)ethyl)piperazin-1-yl)-4-methyl-5-oxo-4,5-dihydro-2H-pyrazolo[4,3-d]pyrimidin-2-yl)acetonitrile] | 0.067 | 8.69
CC[C@@H]1CN(c2cc(=O)n(C)c3cn(CC)nc23)[C@@H](C)CN1C(C)c1ccc2nccnc2c1 (single isomer, unassigned) [Compound A221a] | 0.216 | 1.09
CC[C@@H]1CN(c2cc(=O)n(C)c3cn(CC)nc23)[C@@H](C)CN1C(C)c1ccc2nccnc2c1 (single isomer, unassigned) [Compound A221b] | > 10 | 2.37
CC[C@@H]1CN(c2cc(=O)n(C)c3cn(CC(F)F)nc23)[C@@H](C)CN1C(C)c1ccc2nccnc2c1 (single isomer, unassigned) [Compound A222a] | 0.452 | 5.25
CC[C@@H]1CN(c2cc(=O)n(C)c3cn(CC(F)F)nc23)[C@@H](C)CN1C(C)c1ccc2nccnc2c1 (single isomer, unassigned) [Compound A222b] | > 10 | 7.42
CC[C@H]1CN(C(C)c2c(C)cnn2CC)[C@H](CC)CN1c1cc(=O)n(C)c2cn(CC#N)nc12 (single isomer, unassigned) [Compound A227a] | > 10 | > 10
CC[C@H]1CN(C(C)c2c(C)cnn2CC)[C@H](CC)CN1c1cc(=O)n(C)c2cn(CC#N)nc12 (single isomer, unassigned) [Compound A227b] | 0.691 | > 10
CC[C@H]1CN(C(C)c2ccc(C(F)(F)F)cc2F)[C@H](CC)CN1c1cc(=O)n(C)c2c[nH]nc12 (single isomer, unassigned) [Compound A231a] | > 10 | 1.12
CC[C@H]1CN(C(C)c2ccc(C(F)(F)F)cc2F)[C@H](CC)CN1c1cc(=O)n(C)c2c[nH]nc12 (single isomer, unassigned) [Compound A231b] | > 10 | 0.303

Further lines, results first:

IC50 [1] [µM] | IC50 [2] [µM] | SMILES
0.176 | 0.7 | CC[C@@H]1CN(c2cc(=O)n(C)c3cn(CC#N)nc23)[C@@H](C)CN1C(C)c1ccc(C(F)(F)F)cc1F (single isomer, unassigned) [Compound A202a]
3.03 | 1.28 | CC[C@@H]1CN(c2cc(=O)n(C)c3cn(CC#N)nc23)[C@@H](C)CN1C(C)c1ccc(C(F)(F)F)cc1F (single isomer, unassigned) [Compound A202b]
0.233 | > 10 | CC[C@H]1CN(C(C)c2nc3cc(C(F)(F)F)ccc3n2CC)[C@H](CC)CN1c1cc(=O)n(C)c2cn(CC#N)nc12 (single isomer, unassigned) [Compound A203b]
3.29 | > 10 | CC[C@H]1CN(C(C)c2nc3ccc(C(F)(F)F)cc3n2CC)[C@H](CC)CN1c1cc(=O)n(C)c2cn(CC#N)nc12 (single isomer, unassigned) [Compound A204a]
0.298 | > 10 | CC[C@H]1CN(C(C)c2nc3ccc(C(F)(F)F)cc3n2CC)[C@H](CC)CN1c1cc(=O)n(C)c2cn(CC#N)nc12 (single isomer, unassigned) [Compound A204b]
3.96 | > 10 | CC[C@@H]1CN(c2cc(=O)n(C)c3cn(CC#N)nc23)[C@@H](C)CN1C(C)c1ccc(F)cc1C(F)(F)F (single isomer, unassigned) [Compound A218b]
0.122 | 1.09 | CC[C@H]1CN(C(C)c2ccc(F)cc2C#N)[C@H](CC)CN1c1cc(=O)n(C)c2cn(CC#N)nc12 (single isomer, unassigned) [Compound A224a]
4.94 | 4.15 | CC[C@H]1CN(C(C)c2ccc(F)cc2C#N)[C@H](CC)CN1c1cc(=O)n(C)c2cn(CC#N)nc12 (single isomer, unassigned) [Compound A224b]
1.44 | > 10 | CC[C@H]1CN(C(C)c2nc3cccc(C(F)(F)F)c3n2CC)[C@H](CC)CN1c1cc(=O)n(C)c2cn(CC#N)nc12 (single isomer, unassigned) [Compound A230a]
0.494 | 6.2 | CC[C@H]1CN(C(C)c2nc3cccc(C(F)(F)F)c3n2CC)[C@H](CC)CN1c1cc(=O)n(C)c2cn(CC#N)nc12 (single isomer, unassigned) [Compound A230b]
> 10 | > 10 | CC(c1ccc(F)cc1C(F)(F)F)N1C[C@H](C)N(c2cc(=O)n(C)c3cn(CC#N)nc23)C[C@H]1C (single isomer, unassigned) [Compound A236a]
0.178 | 77.4 | CC(c1ccc(F)cc1C(F)(F)F)N1C[C@H](C)N(c2cc(=O)n(C)c3cn(CC#N)nc23)C[C@H]1C (single isomer, unassigned) [Compound A236b]
0.256 | 1.24 | CC#CCn1cc2c(n1)c(N1C[C@@H](CC)N(C(C)c3ccc(F)cc3C(F)(F)F)C[C@@H]1CC)cc(=O)n2C (single isomer, unassigned) [Compound A238b]
